Ends that are not written are not given here.
Assays:
[1] = test system: diabetic as well as nondiabetic subjects; conditions: cited from earlier work
[2] = test system: insulin treated obese NIDDM patients; test: Example 1: standard test meal study, meal-related C-peptide response, glucagon response and IMIR; type: in vivo, human; conditions: GLP-1(7-36)amide 0.75 pmol/kg/min infusion for 210 min, glibenclamide 1 mg i.v., 6 insulin treated obese NIDDM patients
[3] = test system: patients with NIDDM and secondary failure to sulfonylurea treatment; test: Example 2: basal state and standard lunch study in patients with secondary failure to sulfonylurea treatment; type: in vivo, human; conditions: for Insulinogenic index (integrated insulin/integrated glucose response): after ingestion of the meal; for Insulinogenic index (integrated insulin/integrated glucose response) / Blood glucose: GLP-1(7-36)amide 0.75 pmol/kg/min, glibenclamide 1 mg i.v., 8 NIDDM patients with sulfonylurea failure
healthy volunteers = conditions: peptide infused into healthy volunteers; cited from earlier work
[4] = test system: isolated precultured rat pancreatic islets; conditions: in the presence of glucose, dose-dependent; cited from earlier work
[5] = basal state, 45 minutes after start of administration

GLP-1(7-37): Peptide of formula I with X = Gly-OH; residues 7 to 37 of GLP-1 (HAEGTFTSDVSSYLEGQAAKEFIAWLVKGRG-OH; UniProt P01275 98-128, looked up, fragment)
insulinotropic action [1]: has been demonstrated

COc1ccc(Cl)cc1C(=O)NCCc1ccc(S(=O)(=O)NC(=O)NC2CCCCC2)cc1 [glibenclamide]
Glucagon response [2]: no significant effect
Insulinogenic index (integrated insulin/integrated glucose response) [3]: 10.6 ± 2.8,
effect on blood glucose and C-peptide levels (in words) [3, 5]: no significant effect on its own
Blood glucose [3, 5]: 6.0 ± 0.3 mmol/L

GLP-1(7-36)amide: Peptide of formula I, His-Ala-Glu-Gly-Thr-...-Lys-Gly-Arg-X with X = NH2; fragment of glucagon-like peptide-1
plasma insulin (healthy volunteers): significant rise in plasma insulin
Insulinogenic index (integrated insulin/integrated glucose response) [3]: 21.0 ± 7.2,
Blood glucose [3, 5]: 5.1 ± 0.4 mmol/L

GLP-1(1-36)amide: amide of a fragment of GLP-1 comprising amino acid residues 1 to 36 (HDEFERHAEGTFTSDVSSYLEGQAAKEFIAWLVKGR-NH2; UniProt P01275 92-127, looked up, fragment)
insulin release [4]: stimulates insulin release

Reference: patent US20070225212A1, “Use of a peptide” (priority 1992, published 2007)
